From patent publication US8952024B2, “Herbicidal pyrimidone derivatives” (E I du Pont de Nemours and Company, priority 2009, dated 2015)

Legend:
Assay type in all cases: in vivo
[1] = system: pigweed (Amaranthus retroflexus); test: Test A pre-/postemergence plant response
Outline: (§1)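 Approximately ten days after concurrent pre- and postemergence spraying in a greenhouse, plants were compared with untreated controls and rated visually for injury, 0 = no effect to 100 = complete control. Preemergence spray was directed onto loam/sand soil; postemergence targeted 1–2 leaf seedlings.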

[2] = system: barnyardgrass (Echinochloa crus-galli); test: Test A pre-/postemergence plant response
Outline: as §1

[3] = system: woolly cupgrass (Eriochloa villosa); test: Test B pre-/postemergence plant response; conditions: for Cupgrass, Woolly plant response rating (0 to 100 scale): 0 is no effect, 13 to 15 days
Outline: (§2)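 Pre-em in loam/sand; post-em at 1–4 leaf (2–18 cm) in peat mix. Solvent + surfactant formulation. Greenhouse 13–15 d; visual % control vs untreated, 0–100.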

[4] = system: blackgrass (Alopecurus myosuroides); test: Test B pre-/postemergence plant response; conditions: for Blackgrass plant response rating (0 to 100 scale): 0 is no effect, 13 to 15 days
Outline: as §2

[5] = system: Surinam grass (Brachiaria decumbens); test: Test B pre-/postemergence plant response; conditions: for Surinam Grass plant response rating (0 to 100 scale): 0 is no effect, 13 to 15 days
Outline: as §2

[6] = system: goosegrass (Eleusine indica); test: Test B pre-/postemergence plant response; conditions: for Goosegrass plant response rating (0 to 100 scale): 0 is no effect, 13 to 15 days
Outline: as §2

[7] = system: yellow nutsedge (Cyperus esculentus); test: Test B pre-/postemergence plant response; conditions: for Nutsedge, Yellow plant response rating (0 to 100 scale): 0 is no effect, 13 to 15 days
Outline: as §2

[8] = system: wheat (Triticum aestivum); test: Test B pre-/postemergence plant response; conditions: for Wheat plant response rating (0 to 100 scale): 0 is no effect, 13 to 15 days
Outline: as §2

[9] = system: Italian ryegrass (Lolium multiflorum); test: Test B pre-/postemergence plant response; conditions: for Ryegrass, Italian plant response rating (0 to 100 scale): 0 is no effect, 13 to 15 days
Outline: as §2

[10] = system: velvetleaf (Abutilon theophrasti); test: Test B pre-/postemergence plant response; conditions: for Velvetleaf plant response rating (0 to 100 scale): 0 is no effect, 13 to 15 days
Outline: as §2

[11] = system: morningglory (Ipomoea coccinea); test: Test B pre-/postemergence plant response; conditions: for Morningglory plant response rating (0 to 100 scale): 0 is no effect, 13 to 15 days
Outline: as §2

[12] = system: large crabgrass (Digitaria sanguinalis); test: Test B pre-/postemergence plant response; conditions: for Crabgrass, Large plant response rating (0 to 100 scale): 0 is no effect, 13 to 15 days
Outline: as §2

[13] = system: downy bromegrass (Bromus tectorum); test: Test B pre-/postemergence plant response; conditions: for Bromegrass, Downy plant response rating (0 to 100 scale): 0 is no effect, 13 to 15 days
Outline: as §2

[14] = Postemergence, 125 g ai/ha, visual injury, 0 to 100 scale (0 no effect, 100 complete control), approx. ten days
[15] = Postemergence, 500 g ai/ha, 0 to 100 scale, 0 = no effect, 100 = complete control, approx. ten days
[16] = Preemergence, 125 g ai/ha, 0 to 100 scale, 0 = no effect, 100 = complete control
[17] = Preemergence, 500 g ai/ha, visual injury, 0 to 100 scale (0 no effect, 100 complete control), approx. ten days
[18] = 31 g ai/ha, postemergence, scale 0 to 100, 0 is no effect, 100 is complete control
[19] = 62 g ai/ha, postemergence, 100 is complete control
[20] = 250 g ai/ha, Preemergence, 0 to 100 scale
[21] = Postemergence, 125 g ai/ha, visual rating after 13 to 15 days, scale 0 (no effect) to 100 (complete control)
[22] = Postemergence, 250 g ai/ha, scale 0 to 100 (0 no effect, 100 complete control)
[23] = Preemergence, 31 g ai/ha, scale 0 to 100 (0 no effect, 100 complete control)
[24] = Preemergence, 62 g ai/ha, scale 0 to 100, 0 no effect, 100 complete control
[25] = Preemergence, 125 g ai/ha, scale 0 to 100, 0 no effect, 100 complete control
[26] = Postemergence, 125 g ai/ha, 0 to 100 scale where 0 is no effect and 100 is complete control

CC(C)Cc1ncc(C(=O)C2=C(O)CCCC2=O)c(=O)n1-c1ccccc1 [Compound 68]
90: Plant response rating, Pigweed [1, 16] | Plant response rating, Barnyardgrass [2, 15] | Plant response rating, Surinam Grass [5, 22] | Crabgrass, Large plant response rating (0 to 100 scale) [12, 19] | Plant response rating, Crabgrass, Large [12, 21]
65: Plant response rating, Goosegrass [6, 18] | Plant response rating, Morningglory [11, 25] | Plant response rating, Crabgrass, Large [12, 23]
50: Plant response rating, Barnyardgrass [2, 17] | Plant response rating, Surinam Grass [5, 24] | Plant response rating, Ryegrass, Italian [9, 22]
98: Plant response rating, Goosegrass [6, 20] | Plant response rating, Goosegrass [6, 25] | Plant response rating, Morningglory [11, 21] | Plant response rating, Crabgrass, Large [12, 22] | Plant response rating, Crabgrass, Large [12, 25]
40: Plant response rating, Bromegrass, Downy [13, 22]
0: Plant response rating, Barnyardgrass [2, 16] | Plant response rating, Blackgrass [4, 18] | Blackgrass plant response rating (0 to 100 scale) [4, 19] | Plant response rating, Blackgrass [4, 21] | Plant response rating, Blackgrass [4, 23] | Plant response rating, Blackgrass [4, 24] | Plant response rating, Blackgrass [4, 25] | Plant response rating, Nutsedge, Yellow [7, 18] | Plant response rating, Nutsedge, Yellow [7, 23] | Plant response rating, Wheat [8, 23] | Plant response rating, Wheat [8, 24] | Plant response rating, Wheat [8, 25] | Plant response rating, Ryegrass, Italian [9, 23] | Plant response rating, Ryegrass, Italian [9, 24] | Plant response rating, Ryegrass, Italian [9, 25] | Plant response rating, Morningglory [11, 23] | Plant response rating, Bromegrass, Downy [13, 23] | Plant response rating, Bromegrass, Downy [13, 24] | Plant response rating, Bromegrass, Downy [13, 25]
5: Plant response rating, Cupgrass, Woolly [3, 23] | Plant response rating, Blackgrass [4, 20] | Plant response rating, Wheat [8, 18] | Wheat plant response rating (0 to 100 scale) [8, 19] | Plant response rating, Wheat [8, 21] | Plant response rating, Ryegrass, Italian [9, 18] | Ryegrass, Italian plant response rating (0 to 100 scale) [9, 19] | Plant response rating, Bromegrass, Downy [13, 18] | Bromegrass, Downy plant response rating (0 to 100 scale) [13, 19] | Plant response rating, Bromegrass, Downy [13, 20]
80: Barnyardgrass plant response rating [2, 14] | Plant response rating, Goosegrass [6, 23] | Plant response rating, Nutsedge, Yellow [7, 22] | Plant response rating, Morningglory [11, 18]
85: Plant response rating, Cupgrass, Woolly [3, 20] | Plant response rating, Goosegrass [6, 21] | Plant response rating, Nutsedge, Yellow [7, 25] | Morningglory plant response rating (0 to 100 scale) [11, 19]
95: Plant response rating, Goosegrass [6, 22] | Plant response rating, Goosegrass [6, 24] | Plant response rating, Velvetleaf [10, 18] | Plant response rating, Velvetleaf [10, 23] | Plant response rating, Crabgrass, Large [12, 24]
20: Plant response rating, Cupgrass, Woolly [3, 24] | Plant response rating, Blackgrass [4, 22]
75: Plant response rating, Cupgrass, Woolly [3, 22] | Plant response rating, Crabgrass, Large [12, 18]
10: Plant response rating, Cupgrass, Woolly [3, 18] | Cupgrass, Woolly plant response rating (0 to 100 scale) [3, 19] | Nutsedge, Yellow plant response rating (0 to 100 scale) [7, 19] | Plant response rating, Wheat [8, 22]
25: Plant response rating, Surinam Grass [5, 18] | Plant response rating, Bromegrass, Downy [13, 21]
15: Plant response rating, Ryegrass, Italian [9, 21]
100: Pigweed plant response rating [1, 14] | Plant response rating, Pigweed [1, 15] | Plant response rating, Pigweed [1, 17] | Velvetleaf plant response rating (0 to 100 scale) [10, 19] | Plant response rating, Velvetleaf [10, 21] | Plant response rating, Velvetleaf [10, 22] | Plant response rating, Velvetleaf [10, 24] | Plant response rating, Velvetleaf [10, 25] | Plant response rating, Morningglory [11, 22] | Plant response rating, Crabgrass, Large [12, 20]
55: Plant response rating, Cupgrass, Woolly [3, 21] | Plant response rating, Cupgrass, Woolly [3, 25] | Surinam Grass plant response rating (0 to 100 scale) [5, 19] | Plant response rating, Surinam Grass [5, 25] | Plant response rating, Morningglory [11, 24]
70: Plant response rating, Surinam Grass [5, 21] | Goosegrass plant response rating (0 to 100 scale) [6, 19] | Plant response rating, Nutsedge, Yellow [7, 21] | Plant response rating, Nutsedge, Yellow [7, 24]
45: Plant response rating, Surinam Grass [5, 23]

O=C1CCCC(O)=C1C(=O)c1cnc(C2CC2)n(-c2ccccc2)c1=O [Compound 87]
85: Plant response rating, Surinam Grass [5, 22] | Plant response rating, Crabgrass, Large [12, 18] | Crabgrass, Large plant response rating (0 to 100 scale) [12, 19]
65: Plant response rating, Morningglory [11, 22]
100: Plant response rating, Pigweed [1, 26] | Plant response rating, Pigweed [1, 15] | Plant response rating, Velvetleaf [10, 18] | Velvetleaf plant response rating (0 to 100 scale) [10, 19] | Plant response rating, Velvetleaf [10, 22]
45: Plant response rating, Morningglory [11, 18] | Morningglory plant response rating (0 to 100 scale) [11, 19]
90: Plant response rating, Barnyardgrass [2, 15] | Plant response rating, Barnyardgrass [2, 17] | Plant response rating, Cupgrass, Woolly [3, 22]
95: Plant response rating, Crabgrass, Large [12, 21]
35: Plant response rating, Wheat [8, 18] | Wheat plant response rating (0 to 100 scale) [8, 19]
75: Cupgrass, Woolly plant response rating (0 to 100 scale) [3, 19] | Plant response rating, Cupgrass, Woolly [3, 21] | Plant response rating, Surinam Grass [5, 18] | Surinam Grass plant response rating (0 to 100 scale) [5, 19] | Plant response rating, Goosegrass [6, 18] | Plant response rating, Nutsedge, Yellow [7, 22]
5: Plant response rating, Blackgrass [4, 18] | Blackgrass plant response rating (0 to 100 scale) [4, 19] | Plant response rating, Ryegrass, Italian [9, 18]
98: Plant response rating, Goosegrass [6, 22] | Plant response rating, Crabgrass, Large [12, 22]
20: Plant response rating, Barnyardgrass [2, 16] | Plant response rating, Blackgrass [4, 21] | Plant response rating, Bromegrass, Downy [13, 18]
40: Plant response rating, Blackgrass [4, 22]
10: Plant response rating, Nutsedge, Yellow [7, 18] | Ryegrass, Italian plant response rating (0 to 100 scale) [9, 19]
80: Plant response rating, Barnyardgrass [2, 26] | Goosegrass plant response rating (0 to 100 scale) [6, 19] | Plant response rating, Bromegrass, Downy [13, 22]
50: Plant response rating, Cupgrass, Woolly [3, 18] | Plant response rating, Wheat [8, 22] | Bromegrass, Downy plant response rating (0 to 100 scale) [13, 19]
60: Nutsedge, Yellow plant response rating (0 to 100 scale) [7, 19] | Plant response rating, Ryegrass, Italian [9, 22] | Plant response rating, Bromegrass, Downy [13, 21]
